Experimental data: US11920165B2, “Cultivation of human noroviruses” (Baylor College of Medicine, priority 2015, dated 2024)
Read-outs that look alike come from different tables or passages of the source.

Experiments:
[1] = test system: TCH04-577 GII.3 HuNoV; conditions: J2 enteroids
Experimental: (§2) At 72 hours post infection, the cells and media were harvested and viral RNA was quantified by qRT-PCR. Each bile acid was added at a concentration of 0.5 mM.

[2] = test system: TCH04-577 GII.3 HuNoV; assay: GII.3 replication in J2 jHIE monolayers with ceramide and GCDCA; type: cell-based, human norovirus; conditions: ceramide alone; 24 hpi
Experimental: FIG. 32. At least one lipid, ceramide, enhances GII.3 HuNoV replication alone or in combination with the bile acid GCDCA.J2 jHIE monolayers (p.12) were inoculated with 4.3×105 genome equivalents of TCH04-577 for 1 hr, and after washing twice with CMGF(−) media to remove unbound virus, culture continued in differentiation medium for 24 hrs. The amount of infectious virus was quantified after the washing at 1 hpi (black bars) and at 24 hpi (gray bars). Additives were added to the medium during and post inoculation.
(§1) FIG. 33. Ceramide alone, or in combination with the bile acid GCDCA, enhances GII.3 but not GII.4 HuNoV replication. J2 jHIE monolayers (p.23) were inoculated with 4.3×105 or 9×105 genome equivalents of TCH04-577 or TCH12-580, respectively, for 1 hr and, and after washing twice with CMGF(−) media to remove unbound virus, culture continued in differentiation medium for 72 hrs. The amount of infectious virus was quantified after the washing at 1 hpi (black bars) and 72 hpi (gray bars). Additives (500 μM GCDCA or 500 μM GCDCA+50 μM C2-ceramide) were added to the medium during and post inoculation. Error bars denote standard deviation. p<0.01 comparing genome equivalents at 72 hpi between GCDCA and ceramide+GCDCA.

[3] = test system: TCH04-577 GII.3 HuNoV; assay: microbe, parasite or virus in culture; conditions: Norovirus, in Homo sapiens, 72 h, read-out: Fold increase in viral genome copies compared to no bile (0-72 hpi)
Experimental: as §2

[4] = test system: porcine enteric calicivirus; conditions: Flynn and Saif, 1988; Chang et al., 2004; cited from earlier work
[5] = test system: TCH11-64 GII.4 HuNoV; assay: GII.4 infection of jejunal enteroids after cholesterol extraction or trypsin treatment (VP1-positive cells); type: cell-based, human norovirus; conditions: 24 hpi
Experimental: FIG. 35. Cholesterol extraction using methyl-β-cyclodextrin or treatment of cells with trypsin reduces HuNoV infection. Jejunal enteroids were untreated or treated for 45 min with methyl-β-cyclodextrin (MβCD) or 15 min with trypsin. Trypsin was inhibited with aprotinin and then the monolayer was washed prior to infection. MβCD was present during and after infection. Enteroids were infected with 3×10^6 genome equivalents of TCH11-64 GII.4 HuNoV. Enteroid monolayers were fixed at 24 hpi, VP1 detected by immunofluorescence and the number of VP1-positive cells counted per well.
In specific embodiments of the disclosure, HuNoV use a proteinaceous receptor in lipid rafts for infection. Lipid rafts are specialized domains of the cell membrane and are central for the spatial organization of receptors and signaling molecules. […] Identification of the proteinaceous molecule(s) that function as the receptor for HuNoV replication will allow production of new, simple cell systems that express this receptor and that will support HuNoV replication.

[6] = test system: GII.4/2012-1 HuNoV; assay: GII.4/2012-1 replication and CPE in jejunal HIEs with polymyxin B-treated stool filtrate; type: cell-based, human norovirus; conditions: inoculation with polymyxin B-treated samples
Experimental: FIGS. 21A-21C. […] (FIG. 21A) GII.4/2012-1 stool filtrates were not treated (−) or treated (+) with 100 μg/m polymyxin B for 24 hours. Then, 9×10^5 genome equivalents of the filtrates were inoculated onto each jejunal HIE monolayer for 1 hour. The monolayers were washed twice with CMGF(−) medium and cultured in differentiation medium. […] Error bars denote standard deviation. (FIG. 21B) Gamma irradiated or non-irradiated GII.4/2012-1 stool filtrates were either not treated (−) or treated (+) with polymyxin B for 24 hours. Jejunal HIE monolayers were inoculated with […] for 1 hour as described above. […]
We next evaluated the growth characteristics of HuNoV infection by assessing cytopathic effect (CPE), antigen detection, and the kinetics of infection. […] Two particle sizes were detected (FIG. 15D), with particles of the expected size (31.6+/−3.3 nm) and some smaller particles (FIG. 15D inset, 18.5+/−3.7 nm). […] By Western blot analysis, nonstructural polyprotein synthesis and processing (as evidenced by the detection of several VPg-containing polyprotein processing intermediates) and capsid protein (VP1) production were first detected at 12 hpi in infected cells but not at 1 or 6 hpi or in mock-infected cells (FIG. 15E). Consistent with the production of virus particles (FIG. 15D), VP1 was detected in the culture supernatant by 24 hpi (FIG. 15E). […]

[7] = test system: TCH04-577 GII.3 HuNoV; assay: GII.3 replication in jejunal enteroids with acid sphingomyelinase inhibitors (RT-qPCR); type: cell-based, human norovirus; conditions: inhibitor present 1 hr before and during 24 hrs
Experimental: FIG. 34. Acid sphingomyelinase (ASM) inhibitors suppress GII.3 HuNoV replication. Jejunal enteroids were pretreated with inhibitors for 1 hr and inoculated with TCH04-577 for 1 hr, washed twice with CMGF(−) and cultured for 24 hrs in the presence of the inhibitors. RNA was extracted from cells and medium at 1 and 24 hpi and genome equivalents were analyzed by RT-qPCR.
Acid sphingomyelinase (ASM) that converts sphingomyelin into ceramide is involved in HuNoV infectivity, in at least certain embodiments.

[8] = test system: GII.4 HuNoV; assay: GII.4 HuNoV replication in jejunal HIE monolayers with bile, bile fractions or additives (RT-qPCR); type: cell-based, human norovirus; conditions: GCDCA bile acid
Experimental: FIGS. 26A-26D. Bile is not required but enhances GII.4 HuNoV replication. […] The monolayers were inoculated with 5.5×10^5 genome equivalents of (FIG. 26A) GII.4/2006b-3 or, (FIG. 26B) GII.4/2009, or (FIGS. 26C and 26D) GII.4/2012-1 in the absence or presence of the indicated bile for 1 hour at 37° C.
as §1
One can analyze these samples by mass spectroscopy to determine the bile acid, lipid, fatty acid and/or cholesterol content. Bile was also fractionated based on filtration through different molecular cut-off filters. […]

[9] = test system: GI.1, GII.3, GII.17 HuNoVs; assay: Replication of other HuNoV strains in jejunal HIE monolayers with components of the intestinal milieu; conditions: GI.1, GII.3, GII.17 in jejunal HIE monolayers
Experimental: The monolayers were washed three times with CMGF(−) medium and cultured for the indicated days in differentiation medium in the absence (0%) or presence of the indicated concentrations of bile. At 1 hour and the indicated time post-inoculation, the cells and medium were harvested, RNA extracted and viral genome equivalents quantified by RT-qPCR. Data represent the mean of three wells for each treatment and time point. Error bars denote standard deviation. *, P<0.05 comparing genome equivalents from 1 hpi to the indicated time points.
We next tested whether monolayer cultures of jejunal HIEs could support replication of other HuNoV strains (GI.1, GII.3, GII.17). […] Consequently, several components of the intestinal milieu were assessed for their ability to promote replication of these HuNoVs in HIE monolayers.

For `C[C@H](CCC(=O)NCCS(=O)(=O)O)[C@H]1CC[C@H]2[C@@H]3[C@H](O)C[C@@H]4C[C@H](O)CC[C@]4(C)[C@H]3CC[C@]12C` [TCDCA, Taurochenodeoxycholic acid], which “Fold increase in viral genome copies compared to no bile (0-72 hpi)” value (shortened to “Fold increase … to no bile (0-72 hpi)”) ([1]; bile acid 500 uM) is on record?
The value was 48-103 fold.

For `CCCCCCCCCCCCC/C=C/[C@@H](O)[C@H](CO)NC(C)=O` [Ceramide, C2-ceramide], which GII.3 replication [2] is on record?
The GII.3 replication was “enhances”.

Which fold induction at 500 µM [3] does the source give for `C[C@H](CCC(=O)NCCS(=O)(=O)O)[C@H]1CC[C@H]2[C@@H]3[C@@H](O)C[C@@H]4C[C@H](O)CC[C@]4(C)[C@H]3CC[C@]12C` [TUDCA, Tauroursodeoxycholic acid] here?
The fold induction at 500 µM was 27.

What about the “replication of porcine enteric calicivirus” value [4] of the same molecule?
The value was “did not enhance”.

Which “Fold increase … to no bile (0-72 hpi)” value ([1]; bile acid 500 uM) does the source give for `C[C@H](CCC(=O)O)[C@H]1CC[C@H]2[C@@H]3[C@@H](O)C[C@@H]4C[C@H](O)CC[C@]4(C)[C@H]3CC[C@]12C` [UDCA, ursodeoxycholic acid] here?
The value was “no increase”.

For methyl-β-cyclodextrin, which “GII.4 infection (VP1-positive cells per well)” value [5] is on record?
The value was “significantly reduced”.

Which fold induction at 500 µM [3] does the source give for `C[C@H](CCC(=O)NCCS(=O)(=O)O)[C@H]1CC[C@H]2[C@@H]3CC[C@@H]4C[C@H](O)CC[C@]4(C)[C@H]3C[C@H](O)[C@]12C` [TDCA, Taurodeoxycholic acid] here?
The fold induction at 500 µM was 95.

Which CPE [6] does the source give for polymyxin B here?
Its CPE is “not reduced”.

Which fold induction at 500 µM [3] does the source give for `C[C@H](CCC(=O)NCCS(=O)(=O)O)[C@H]1CC[C@H]2[C@@H]3[C@H](O)C[C@@H]4C[C@H](O)CC[C@]4(C)[C@H]3C[C@H](O)[C@]12C` [TCA, Taurocholic acid] here?
Its fold induction at 500 µM is 65.

Which results are given for `CN(C)CCCN1c2ccccc2Sc2ccc(Cl)cc21` [chlorpromazine]?
GII.3 replication [7]: significantly reduced; dose dependence of the effect on GII.3 replication [7]: dose-dependent decrease

For `C[C@H](CCC(=O)O)[C@H]1CC[C@H]2[C@@H]3[C@H](O)C[C@@H]4C[C@H](O)CC[C@]4(C)[C@H]3CC[C@]12C` [CDCA, chenodeoxycholic acid], which “Fold increase … to no bile (0-72 hpi)” value ([1]; bile acid 100 uM) is on record?
The value was “no increase”.

With `CC(CCC(=O)NCC(=O)O)C1CCC2C3C(O)CC4CC(O)CCC4(C)C3CCC12C` (stereo not shown) [GCDCA, Glycochenodeoxycholic acid] as the molecule, how does the GII.4 replication [8] read?
Its GII.4 replication is “can enhance”.

And the fold induction at 500 µM [3]?
Its fold induction at 500 µM is 71 to 106.

With `C[C@H](CCC(=O)NCCS(=O)(=O)O)[C@H]1CC[C@H]2[C@@H]3CC[C@@H]4C[C@H](O)CC[C@]4(C)[C@H]3CC[C@]12C` [TLCA, taurolithocholic acid] as the molecule, how does the fold induction at 500 µM [3] read?
Its fold induction at 500 µM is 268.

With `C[C@H](CCC(=O)O)[C@H]1CC[C@H]2[C@@H]3[C@H](O)C[C@@H]4C[C@H](O)CC[C@]4(C)[C@H]3C[C@H](O)[C@]12C` [CA, cholic acid] as the molecule, how does the fold induction at 500 µM [3] read?
The fold induction at 500 µM was 49 to 63.

What does the source list for `CN(C)CCC=C1c2ccccc2CCc2ccccc21` [amitriptyline]?
GII.3 replication [7]: significantly reduced; dose dependence of the effect on GII.3 replication [7]: dose-dependent decrease

Which fold induction at 500 µM [3] does the source give for `C[C@H](CCC(=O)NCC(=O)O)[C@H]1CC[C@H]2[C@@H]3[C@H](O)C[C@@H]4C[C@H](O)CC[C@]4(C)[C@H]3C[C@H](O)[C@]12C` [GCA, Glycocholic acid] here?
Its fold induction at 500 µM is 48.

With `CC(CCC(=O)NCC(=O)O)C1CCC2C3CCC4CC(O)CCC4(C)C3CC(O)C12C` (stereo not shown) [GDCA, glycodeoxycholic acid] as the molecule, how does the fold induction at 500 µM [3] read?
Its fold induction at 500 µM is 160.

B1: trypsin: protease that cleaves proteins (protein, UniProt P00760 24-246, looked up)
Serine protease 1: IVGGYTCGANTVPYQVSLNSGYHFCGGSLINSQWVVSAAHCYKSGIQVRLGEDNINVVEGNEQFISASKSIVHPSYNSNTLNNDIMLIKLKSAASLNSRVASISLPTSCASAGTQCLISGWGNTKSSGTSYPDVLKCLKAPILSDSSCKSAYPGQITSNMFCAGYLEGGKDSCQGDSGGPVVCSGKLQGIVSWGSGCAQKNKPGVYTKVCNYVSWIKQTIASN
Which results are given for B1?
HuNoV replication [9]: failed to enhance; GII.4 infection (VP1-positive cells per well) [5]: reduced
